Experimental findings from patent US8916599B2, “1H-benz imidazole-5-carboxamides as anti-inflammatory agents” (Orexo AB, priority 2008, dated 2014) are described below.

For one assay, the target named is T1, recombinant human mPGES-1 (Homo sapiens, UniProt O14684).
T1 construct: made in house; host or cells: Rosetta E. coli (microsomal/membrane fraction)
T1 sequence (O14684 1-152): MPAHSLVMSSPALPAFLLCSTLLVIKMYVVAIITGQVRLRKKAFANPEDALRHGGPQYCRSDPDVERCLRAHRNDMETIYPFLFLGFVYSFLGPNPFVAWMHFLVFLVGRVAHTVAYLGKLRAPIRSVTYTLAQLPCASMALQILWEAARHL
As to the kind of experiment: mPGES-1 inhibition test (microsomes, PGH2 substrate, HTRF detection of PGE2). Conditions: inhibition of mPGES-1 at 1 μM (marked in cell). It is filed as biochemical. The procedure, abridged: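 Bacterial microsomes with GSH-containing phosphate buffer at pH 7.4 are exposed to test compounds for 25 minutes before a one-minute PGH2 conversion. The quenched, 750-fold diluted mixture is analysed by time-resolved FRET for PGE2.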
Background: Time-resolved FRET reads energy transfer from a long-lived donor to a nearby acceptor.
A word on the inhibition: it is the percentage by which the read-out fell short of the control. Take `COc1cc2[nH]c(Nc3c(Cl)ccc(C)c3F)nc2cc1C(=O)NC1CCCCC1` [Example 628, 2-(6-Chloro-2-fluoro-3-methyl-phenylamino)-6-methoxy-N-cyclohexyl-1H-benzimidazole-5-carboxamide]: the inhibition at 1 µM turned out to be 98%.

Still in this assay, the particulars now being: inhibition of mPGES-1 at 10 μM.
As for `Cn1c(Nc2c(Cl)cccc2Cl)nc2cc(C(=O)NC3CCCC(C)(C)C3)c(F)cc21` (stereo not shown) [Example 355, 2-(2,6-Dichlorophenylamino)-N-(3,3-dimethylcyclohexyl)-6-fluoro-1-methyl-1H-benzimidazole-5-carboxamide], the inhibition at 10 µM amounted to 100%.
Regarding `CCCCCNC(=O)c1cc2nc(Nc3c(Cl)cccc3Cl)n(C)c2cc1F` [Example 391, 2-(2,6-Dichlorophenylamino)-6-fluoro-1-methyl-N-pentyl-1H-benzimidazole-5-carboxamide], the inhibition at 10 µM is 100%.
On the same count and under the same terms, for `CNCCn1c(Nc2c(Cl)cccc2Cl)nc2cc(C(=O)Nc3cc(Cl)ccn3)ccc21` [Example 212, 2-(2,6-Dichloro-phenylamino)-1-(2-methylamino-ethyl)-1H-benzimidazole-5-carboxylic acid (4-chloro-pyridin-2-yl)-amide (trifluoroacetate)] the value was 100%; for `Cc1cc(C)c(Nc2nc3cc(C(=O)Nc4ccc(Br)cc4)ccc3n2C)c(Cl)c1` [Example 489, N-(4-Bromophenyl)-2-(2-chloro-4,6-dimethylphenylamino)-1-methyl-1H-benzimidazole-5-carboxamide], 98%; for `Cn1c(Nc2ccc(Cl)cc2C(F)(F)F)nc2cc(C(=O)Nc3ccc(Br)cc3)ccc21` [Example 433, N-(4-Bromophenyl)-2-(4-chloro-2-trifluoromethyl-phenylamino)-1-methyl-1H-benzimidazole-5-carboxamide], 99%.
As to `CN(C)CCn1c(Nc2c(Cl)cccc2Cl)nc2cc(C(=O)Nc3cc(Cl)ccn3)ccc21` [Example 273, 2-(2,6-Dichloro-phenylamino)-1-(2-dimethylamino-ethyl)-1H-benzimidazole-5-carboxylic acid (4-chloro-pyridin-2-yl)-amide], the inhibition at 10 µM was determined as 100%.
The same measure, in the same setting: for `O=C(Nc1cc(Cl)cc(Cl)c1)c1ccc2[nH]c(Nc3c(Cl)cccc3Cl)nc2c1` [Example 112, 2-(2,6-Dichloro-phenylamino)-1H-benzimidazole-5-carboxylic acid (3,5-dichloro-phenyl)-amide] the value was 97%; for `Cn1c(Nc2c(F)cccc2Cl)nc2cc(C(=O)NCC3CC3)c(F)cc21` [Example 546, 2-(2-Chloro-6-fluorophenylamino)-N-(cyclopropylmethyl)-6-fluoro-1-methyl-1H-benzimidazole-5-carboxamide], 85%.
On the same count and under the same terms, for `O=C(Nc1ccc(Cl)c(Cl)c1)c1ccc2[nH]c(Nc3c(Cl)cccc3Cl)nc2c1` [Example 111, 2-(2,6-Dichloro-phenylamino)-1H-benzimidazole-5-carboxylic acid (3,4-dichloro-phenyl)-amide] the value was 100%.
In the case of `Cn1c(Nc2c(Cl)cccc2Cl)nc2cc(C(=O)NCc3cn4cc(Cl)ccc4n3)c(F)cc21` [Example 564, N-((6-Chloroimidazo[1,2-a]pyridin-2-yl)methyl)-2-(2,6-dichlorophenylamino)-6-fluoro-1-methyl-1H-benzimidazole-5-carboxamide], the inhibition at 10 µM came out at 70%.
In the case of `O=C(Nc1cc(Cl)ccn1)c1ccc2c(c1)nc(Nc1c(Cl)cccc1Cl)n2CCCO` [Example 263, 2-(2,6-Dichloro-phenylamino)-1-(3-hydroxy-propyl)-1H-benzimidazole-5-carboxylic acid (4-chloro-pyridin-2-yl)-amide], the inhibition at 10 µM was found to be 93%.
Still for that read-out and setting: for `O=C(N[C@H]1CC[C@H](C(F)(F)F)CC1)c1cc2nc(Nc3c(F)ccc(F)c3Cl)[nH]c2cc1OCC(F)(F)F` [Example 594, 2-(2-Chloro-3,6-difluoro-phenylamino)-N-(4-trans-trifluoromethyl-cyclohex-1-yl)-6-(2,2,2-trifluorethoxy)-1H-benzimidazole-5-carboxamide] the value was 94%.
As for “2-(2-Chloro-6-fluorophenylamino-N-(4-isopropylcyclohexyl)-6-fluoro-1-methyl-1H-benzimidazole-5-carboxamide [Example 363]”, the “% inhib.” value stood at 100%.
Take `CC(C)Oc1cc2[nH]c(Nc3c(Cl)ccc(Cl)c3F)nc2cc1C(=O)Nc1ccc(Br)cc1` [Example 610, 2-(3,6-Dichloro-2-fluoro-phenylamino)-N-(4-bromo-phenyl)-6-isopropoxy-1H-benzimidazole-5-carboxamide]: the inhibition at 10 µM amounted to 87%.
As for `O=C(O)CCn1c(Nc2c(Cl)cccc2Cl)nc2cc(C(=O)Nc3cc(Cl)ccn3)ccc21` [Example 265, 2-(2,6-Dichloro-phenylamino)-1-(propionic acid)-1H-benzimidazole-5-carboxylic acid (4-chloro-pyridin-2-yl)-amide], the inhibition at 10 µM came out at 97%.
Consider `Cn1c(Nc2c(Cl)cc(F)cc2Cl)nc2cc(C(=O)N[C@H]3CC[C@H](C(F)(F)F)CC3)ccc21` [Example 432, 2-(2,6-Dichloro-4-fluorophenylamino)-1-methyl-N-((1R,4R)-4-trifluoromethyl-cyclohexyl)-1H-benzimidazole-5-carboxamide], for which the inhibition at 10 µM worked out at 100%.
Still for that read-out and setting: for `CCCCCCNC(=O)c1cc2nc(Nc3c(Cl)cccc3Cl)n(C)c2cc1F` [Example 373, 2-(2,6-Dichlorophenylamino)-6-fluoro-N-hexyl-1-methyl-1H-benzimidazole-5-carboxamide] the value was 100%.
`Cn1c(Nc2c(Cl)ccc(Cl)c2F)nc2cc(C(=O)N[C@H]3CC[C@H](C(F)(F)F)CC3)c(F)cc21` [Example 601, 2-(3,6-Dichloro-2-fluoro-phenylamino)-6-fluoro-N-(trans-4-trifluoromethyl-cyclohex-1-yl)-1-methyl-1H-benzimidazole-5-carboxamide]: the inhibition at 10 µM stood at 92%.
Same read-out and setting: for `CC(=O)NCCn1c(Nc2c(Cl)cccc2Cl)nc2cc(C(=O)Nc3cc(Cl)ccn3)ccc21` [Example 278, 2-(2,6-Dichloro-phenylamino)-1-(2-acetylamino-ethyl)-1H-benzimidazole-5-carboxylic acid (4-chloro-pyridin-2-yl)-amide] the value was 92%; for `O=C(NC1CCC(C(F)(F)F)CC1)c1ccc2[nH]c(Nc3c(Cl)cccc3Cl)nc2c1` (stereo not shown) [Example 230, 2-(2,6-Dichloro-phenylamino)-1H-benzimidazole-5-carboxylic acid (4-trifluoromethyl-cyclohexyl)-amide], 99%; for `Cn1c(Nc2c(F)cccc2Cl)nc2cc(C(=O)NC3CCCC(C)(C)C3)c(F)cc21` (stereo not shown) [Example 404, 2-(2-Chloro-6-fluorophenylamino)-N-(3,3-dimethylcyclohexyl)-6-fluoro-1-methyl-1H-benzimidazole-5-carboxamide], 100%.
The same measure, in the same setting: then `Cn1c(Nc2ccccc2OC(F)(F)F)nc2cc(C(=O)Nc3ccc(Br)cc3)ccc21` [Example 320, 1-Methyl-2-(2-trifluoromethoxy-phenylamino)-1H-benzimidazole-5-carboxylic acid (4-bromo-phenyl)-amide], with 100%.
As for `O=C(Nc1ccccc1)c1ccc2[nH]c(Nc3c(Cl)cccc3Cl)nc2c1` [Example 1, 2-(2,6-Dichloro-phenylamino)-1H-benzimidazole-5-carboxylic acid phenylamide], the inhibition at 10 µM is 100%.
On the same count and under the same terms, for `O=C(Nc1cccc(Cl)n1)c1ccc2[nH]c(Nc3c(Cl)cccc3Cl)nc2c1` [Example 185, 2-(2,6-Dichloro-phenylamino)-1H-benzimidazole-5-carboxylic acid (6-chloro-pyridin-2-yl)-amide] the value was 98%; for `Cn1c(Nc2c(Cl)cccc2Cl)nc2cc(C(=O)N[C@H]3CC[C@H](C(F)(F)F)CC3)c(F)cc21` [Example 158, 2-(2,6-Dichloro-phenylamino)-6-fluoro-1-methyl-1H-benzimidazole-5-carboxylic acid (trans-4-trifluoromethyl-cyclohexyl)-amide], 100%; for `Cn1c(Nc2c(Cl)cccc2Cl)nc2cc(C(=O)NC3CCC(C)(C)CC3)c(F)cc21` [Example 157, 2-(2,6-Dichloro-phenylamino)-6-fluoro-1-methyl-1H-benzimidazole-5-carboxylic acid (4,4-dimethyl-cyclohexyl)-amide], 100%.
The same measure, in the same setting: for `O=C(Nc1ccc(Br)cc1)c1ccc2[nH]c(Nc3cccc(Cl)c3Cl)nc2c1` [Example 108, 2-(2,3-Dichloro-phenylamino)-1H-benzimidazole-5-carboxylic acid (4-bromo-phenyl)-amide] the value was 100%; for `Cn1c(Nc2ccc(C(F)(F)F)cc2Cl)nc2cc(C(=O)Nc3ccc(Br)cc3)ccc21` [Example 556, N-(4-Bromophenyl)-2-(2-chloro-4-trifluoromethyl-phenylamino)-1-methyl-1H-benzimidazole-5-carboxamide], 74%.
The same measure, in the same setting: for `CC1CC(NC(=O)c2ccc3[nH]c(Nc4c(Cl)cccc4Cl)nc3c2)CC(C)(C)C1` (stereo not shown) [Example 218, 2-(2,6-Dichloro-phenylamino)-1H-benzimidazole-5-carboxylic acid (3,3,5-trimethyl-cyclohexyl)-amide] the value was 100%; for `O=C(NC1CCCCC1)c1ccc2nc(Nc3c(Cl)cccc3Cl)[nH]c2c1` [Example 137, 2-(2,6-Dichloro-phenylamino)-3H-benzimidazole-5-carboxylic acid cyclohexylamide], 100%.
